Source: PubChem BioAssay AID2060910 (Molecular Pharmacology Branch, DTP, NCI, 2025)
pIC50: −log10 of the molar value.

Tested on: 242566-281-R-J2-PDC complex spheroid viability
Assay: Anticancer human tumor 242566-281-R-J2-PDC patient-derived pancreatic carcinoma cell line growth inhibition [RAS]
Conditions: for pIC50: curve of first compound; for viability, T/C: stronger effect = lower value; active = viability on the fitted dose curve at most 10% of control; inactive = the rest
Summary of the method: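 Multi-cell-type spheroids: tumor cells plus HUVEC endothelial cells and mesenchymal stem cells. RAS-pathway inhibitors were combined with targeted agents, each dosed in half-log steps down from clinical Cmax, or from 10 microM when Cmax was unknown.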

[1] = second compound 0.000949 µM, first compound 0.0316 µM
[2] = second compound 0.000949 µM, first compound 0.1 µM
[3] = second compound 0.000949 µM, first compound 0.316 µM
[4] = second compound 0.000949 µM, first compound 1 µM
[5] = second compound 0.000949 µM, first compound 3.16 µM
[6] = second compound 0.000949 µM, first compound 10 µM
[7] = second compound 0.003 µM, first compound 0.0316 µM
[8] = second compound 0.003 µM, first compound 0.1 µM
[9] = second compound 0.003 µM, first compound 0.316 µM
[10] = second compound 0.003 µM, first compound 1 µM
[11] = second compound 0.003 µM, first compound 3.16 µM
[12] = second compound 0.003 µM, first compound 10 µM
[13] = second compound 0.00949 µM, first compound 0.0316 µM
[14] = second compound 0.00949 µM, first compound 0.1 µM
[15] = second compound 0.00949 µM, first compound 0.316 µM
[16] = second compound 0.00949 µM, first compound 1 µM
[17] = second compound 0.00949 µM, first compound 3.16 µM
[18] = second compound 0.00949 µM, first compound 10 µM
[19] = second compound 0.03 µM, first compound 0.0316 µM
[20] = second compound 0.03 µM, first compound 0.1 µM
[21] = second compound 0.03 µM, first compound 0.316 µM
[22] = second compound 0.03 µM, first compound 1 µM
[23] = second compound 0.03 µM, first compound 3.16 µM
[24] = second compound 0.03 µM, first compound 10 µM
[25] = second compound 0.0949 µM, first compound 0.0316 µM
[26] = second compound 0.0949 µM, first compound 0.1 µM
[27] = second compound 0.0949 µM, first compound 0.316 µM
[28] = second compound 0.0949 µM, first compound 1 µM
[29] = second compound 0.0949 µM, first compound 3.16 µM
[30] = second compound 0.0949 µM, first compound 10 µM
[31] = second compound 0.3 µM, first compound 0.0316 µM
[32] = second compound 0.3 µM, first compound 0.1 µM
[33] = second compound 0.3 µM, first compound 0.316 µM
[34] = second compound 0.3 µM, first compound 1 µM
[35] = second compound 0.3 µM, first compound 3.16 µM
[36] = second compound 0.3 µM, first compound 10 µM
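Also: spheroids exposed to compound for 7 days before readout.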
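For viability, T/C in this document: 100% = DMSO vehicle control wells.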

CC(=O)OC12COC1CC(O)C1(C)C(=O)C(O)C3=C(C)C(OC(=O)C(O)C(NC(=O)OC(C)(C)C)c4ccccc4)CC(O)(C(OC(=O)c4ccccc4)C21)C3(C)C (stereo not given) + CCn1c(-c2cccnc2C(C)OC)c2c3cc(ccc31)N1CCOC(CC(NC(=O)C(C(C)C)N(C)C(=O)C3(F)CCN(C(=O)C#CC(C)(C)N(C)C)CC3)C(=O)N3CCCC(N3)C(=O)OCC(C)(C)C2)C1
inactive: viability, T/C [1] 47.2% | viability, T/C [2] 33.6% | viability, T/C [3] 26.5% | viability, T/C [4] 35.8% | viability, T/C [5] 40.1% | viability, T/C [6] 38.8% | viability, T/C [7] 40.7% | viability, T/C [8] 30.1% | viability, T/C [9] 32.4% | viability, T/C [10] 35.7% | viability, T/C [11] 40.7% | viability, T/C [12] 33.9% | viability, T/C [13] 46.7% | viability, T/C [14] 32.3% | viability, T/C [15] 35.8% | viability, T/C [16] 37.7% | viability, T/C [17] 35.9% | viability, T/C [18] 34.9% | viability, T/C [19] 43.2% | viability, T/C [20] 33.9% | viability, T/C [21] 31.8% | viability, T/C [22] 34.6% | viability, T/C [23] 29.3% | viability, T/C [24] 43.4% | viability, T/C [25] 36.9% | viability, T/C [26] 34.5% | viability, T/C [27] 31.4% | viability, T/C [28] 33.2% | viability, T/C [29] 27.9% | viability, T/C [30] 40.3% | viability, T/C [31] 26.3% | viability, T/C [32] 27% | viability, T/C [33] 26.2% | viability, T/C [34] 20.2% | viability, T/C [35] 27% | viability, T/C [36] 29.4%
> 7.50: pIC50 (second compound 0.000949 µM) | pIC50 (second compound 0.003 µM) | pIC50 (second compound 0.00949 µM) | pIC50 (second compound 0.03 µM) | pIC50 (second compound 0.0949 µM) | pIC50 (second compound 0.3 µM)

CCC(CC)c1cc(NC2CCC(N)C2)n2nccc2n1 (stereo not given) + CCn1c(-c2cccnc2C(C)OC)c2c3cc(ccc31)N1CCOC(CC(NC(=O)C(C(C)C)N(C)C(=O)C3(F)CCN(C(=O)C#CC(C)(C)N(C)C)CC3)C(=O)N3CCCC(N3)C(=O)OCC(C)(C)C2)C1
5.66: pIC50 (second compound 0.00949 µM)
5.82: pIC50 (second compound 0.3 µM)
5.56: pIC50 (second compound 0.000949 µM) | pIC50 (second compound 0.003 µM)
inactive: viability, T/C [1] 89.3% | viability, T/C [2] 91.4% | viability, T/C [3] 91.1% | viability, T/C [4] 97.8% | viability, T/C [5] 44.2% | viability, T/C [7] 97.9% | viability, T/C [8] 112% | viability, T/C [9] 102% | viability, T/C [10] 105% | viability, T/C [11] 42.4% | viability, T/C [13] 107% | viability, T/C [14] 77.5% | viability, T/C [15] 86.7% | viability, T/C [16] 87.6% | viability, T/C [17] 32% | viability, T/C [19] 93.3% | viability, T/C [20] 86.3% | viability, T/C [21] 89.9% | viability, T/C [22] 84.3% | viability, T/C [23] 21.4% | viability, T/C [25] 106% | viability, T/C [26] 96.6% | viability, T/C [27] 90% | viability, T/C [28] 80.5% | viability, T/C [29] 12.4% | viability, T/C [31] 82.4% | viability, T/C [32] 89.8% | viability, T/C [33] 84.7% | viability, T/C [34] 69.2% | viability, T/C [35] 15.2%
5.78: pIC50 (second compound 0.0949 µM)
5.73: pIC50 (second compound 0.03 µM)
active: viability, T/C [6] 1.81% | viability, T/C [12] 1.8% | viability, T/C [18] 2.19% | viability, T/C [24] 2.92% | viability, T/C [30] 3.14% | viability, T/C [36] 2.62%

Cc1nc(N2CCC3(CC2)COC(C)C3N)c(CO)nc1Sc1ccnc(N)c1Cl (stereo not given) + CCn1c(-c2cccnc2C(C)OC)c2c3cc(ccc31)N1CCOC(CC(NC(=O)C(C(C)C)N(C)C(=O)C3(F)CCN(C(=O)C#CC(C)(C)N(C)C)CC3)C(=O)N3CCCC(N3)C(=O)OCC(C)(C)C2)C1
< 5.00: pIC50 (second compound 0.000949 µM) | pIC50 (second compound 0.003 µM) | pIC50 (second compound 0.00949 µM) | pIC50 (second compound 0.03 µM) | pIC50 (second compound 0.0949 µM) | pIC50 (second compound 0.3 µM)
inactive: viability, T/C [1] 94.9% | viability, T/C [2] 93.2% | viability, T/C [3] 63.1% | viability, T/C [4] 77.4% | viability, T/C [5] 71.5% | viability, T/C [6] 53.4% | viability, T/C [7] 102% | viability, T/C [8] 80% | viability, T/C [9] 80% | viability, T/C [10] 81.5% | viability, T/C [11] 74% | viability, T/C [12] 52.8% | viability, T/C [13] 98.8% | viability, T/C [14] 73.4% | viability, T/C [15] 67.3% | viability, T/C [16] 71% | viability, T/C [17] 67.1% | viability, T/C [18] 68.6% | viability, T/C [19] 97.6% | viability, T/C [20] 85.5% | viability, T/C [21] 82% | viability, T/C [22] 73.7% | viability, T/C [23] 60.7% | viability, T/C [24] 61.6% | viability, T/C [25] 75.1% | viability, T/C [26] 77.3% | viability, T/C [27] 79.7% | viability, T/C [28] 71.1% | viability, T/C [29] 54.3% | viability, T/C [30] 61.9% | viability, T/C [31] 73.7% | viability, T/C [32] 72.8% | viability, T/C [33] 61.5% | viability, T/C [34] 50.5% | viability, T/C [35] 49.9% | viability, T/C [36] 51.5%

NC1c2ccccc2OC12CCN(c1cnc3c(N4CCCc5ncccc54)n[nH]c3n1)CC2 (stereo not given) + CCn1c(-c2cccnc2C(C)OC)c2c3cc(ccc31)N1CCOC(CC(NC(=O)C(C(C)C)N(C)C(=O)C3(F)CCN(C(=O)C#CC(C)(C)N(C)C)CC3)C(=O)N3CCCC(N3)C(=O)OCC(C)(C)C2)C1
5.64: pIC50 (second compound 0.000949 µM)
6.48: pIC50 (second compound 0.3 µM)
5.69: pIC50 (second compound 0.003 µM)
5.49: pIC50 (second compound 0.00949 µM)
inactive: viability, T/C [1] 89.6% | viability, T/C [2] 80.3% | viability, T/C [3] 54.3% | viability, T/C [4] 64.5% | viability, T/C [5] 57.4% | viability, T/C [6] 28.6% | viability, T/C [7] 92.4% | viability, T/C [8] 76.2% | viability, T/C [9] 62.7% | viability, T/C [10] 62.4% | viability, T/C [11] 54.4% | viability, T/C [12] 25.5% | viability, T/C [13] 82.3% | viability, T/C [14] 77.1% | viability, T/C [15] 69.1% | viability, T/C [16] 64.6% | viability, T/C [17] 51.9% | viability, T/C [18] 28.3% | viability, T/C [19] 91% | viability, T/C [20] 81.3% | viability, T/C [21] 69.8% | viability, T/C [22] 59.6% | viability, T/C [23] 41.1% | viability, T/C [24] 36.8% | viability, T/C [25] 75.1% | viability, T/C [26] 71.7% | viability, T/C [27] 62% | viability, T/C [28] 55% | viability, T/C [29] 33.3% | viability, T/C [30] 26.5% | viability, T/C [31] 68.2% | viability, T/C [32] 56.4% | viability, T/C [33] 52.8% | viability, T/C [34] 38.9% | viability, T/C [35] 33.5% | viability, T/C [36] 21.1%
5.73: pIC50 (second compound 0.03 µM)
5.95: pIC50 (second compound 0.0949 µM)

Nc1ccn(C2OC(CO)C(O)C2(F)F)c(=O)n1 (stereo not given) + CCn1c(-c2cccnc2C(C)OC)c2c3cc(ccc31)N1CCOC(CC(NC(=O)C(C(C)C)N(C)C(=O)C3(F)CCN(C(=O)C#CC(C)(C)N(C)C)CC3)C(=O)N3CCCC(N3)C(=O)OCC(C)(C)C2)C1
7.28: pIC50 (second compound 0.000949 µM)
7.30: pIC50 (second compound 0.3 µM)
7.17: pIC50 (second compound 0.03 µM)
7.12: pIC50 (second compound 0.0949 µM)
7.05: pIC50 (second compound 0.00949 µM)
inactive: viability, T/C (second compound 0.000949 µM, first compound 0.00316 µM) 114% | viability, T/C (second compound 0.000949 µM, first compound 0.01 µM) 88% | viability, T/C [1] 50.5% | viability, T/C [2] 45.3% | viability, T/C [3] 23.3% | viability, T/C [4] 11.2% | viability, T/C (second compound 0.003 µM, first compound 0.00316 µM) 104% | viability, T/C (second compound 0.003 µM, first compound 0.01 µM) 87.2% | viability, T/C [7] 71.2% | viability, T/C [8] 42% | viability, T/C [9] 21.2% | viability, T/C [10] 11.6% | viability, T/C (second compound 0.00949 µM, first compound 0.00316 µM) 104% | viability, T/C (second compound 0.00949 µM, first compound 0.01 µM) 92.3% | viability, T/C [13] 81.2% | viability, T/C [14] 46.6% | viability, T/C [15] 21.6% | viability, T/C [16] 13.2% | viability, T/C (second compound 0.03 µM, first compound 0.00316 µM) 101% | viability, T/C (second compound 0.03 µM, first compound 0.01 µM) 96% | viability, T/C [19] 68.5% | viability, T/C [20] 41.9% | viability, T/C [21] 16.4% | viability, T/C [22] 12% | viability, T/C (second compound 0.0949 µM, first compound 0.00316 µM) 86.4% | viability, T/C (second compound 0.0949 µM, first compound 0.01 µM) 87.1% | viability, T/C [25] 64.7% | viability, T/C [26] 49.2% | viability, T/C [27] 14.1% | viability, T/C [28] 13.4% | viability, T/C (second compound 0.3 µM, first compound 0.00316 µM) 91.7% | viability, T/C (second compound 0.3 µM, first compound 0.01 µM) 81.8% | viability, T/C [31] 65.6% | viability, T/C [32] 28.4% | viability, T/C [33] 15.5% | viability, T/C [34] 10.1%
7.14: pIC50 (second compound 0.003 µM)
